In US7208572B2, “Leptin-related peptides” (Albany Medical College, priority 1998, dated 2007):
Marks after values point to notes of the source that are not given here. Square brackets hold non-standard residues; d marks the D form. Ends that are not written are not given here.

Legend:
Type in all cases: in vivo, mouse
[1] = Epitope mapping: body weight and food intake in female C57BL/6J ob/ob mice, 7 daily ip injections; conditions: for Reduction of food intake / Weight loss: 1 mg daily; for Reduction of food intake / Cumulative food intake / Percent heavier (+) or lighter (−) than initial weight / Weight gain (+) or loss (−) / Food intake vs vehicle: 7 days; for Weight loss: after 7 days; for Cumulative food intake / Percent heavier (+) or lighter (−) than initial weight / Weight gain (+) or loss (−): 1 mg/day ip
Method: Animal procedures. Feeding and weighing schedules, as well as peptide administration protocols, are as described in EXAMPLE 8, supra.
Statistical analysis. Changes in body weight and differences in food intake between peptide-treated and vehicle-injected control mice were analyzed by analysis of variance (ANOVA) and considered significant when P<0.05.
Female ob/ob mice (n=6 per group) were given a single ip injection of 0.2 ml of vehicle (PBS, pH 7.2) or leptin-related synthetic peptide amide in 0.2 ml PBS for 7 consecutive days. Daily changes in body weight compared to pretreatment weights in both vehicle-injected control and peptide-treated mice are shown in FIG. 4. […] There was no evidence of weight loss in response to peptide treatment.

[2] = 28-day ip study of body weight and food intake in female C57BL/6J ob/ob mice; conditions: 1 mg per day ip, 28 days
Excerpt: In order to examine this possibility, six overlapping peptide amides, which corresponded to amino acid residues 106 to 167 of mouse leptin, were synthesized and their effects on body weight and food intake in female C57BL/6J ob/ob mice were subsequently assessed.

[3] = 12-day ip study of body weight gain and food intake in female C57BL/6J ob/ob mice; conditions: 1 mg/day ip, 12 days
Method: The graphs show changes in body weight (expressed as percent of initial weight) and food intake (expressed as mg/gm body weight/mouse) for mice given vehicle or synthetic leptin-related peptide OB3 (1 mg/day, ip, 12 days).
Mice were injected with leptin-related synthetic peptide (1 mg/g body weight, ip) or vehicle daily for 12 consecutive days. Each bar represents mean±SEM food consumption per mouse (n=6 mice per group) after 3, 6, 9 and 12 days of treatment.
Each value represents mean±SEM change in body weight for a group of 6 mice.
Mice were injected with leptin-related synthetic peptide (1 mg/g body weight, ip) or vehicle for 12 consecutive days. Each bar and vertical line represents mean±food consumption per mouse (n=6 mice per group) after 3, 6, 9 and 12 days of treatment.

[4] = Truncated and D-amino acid-substituted analogs: body weight, food and water intake in female C57BL/6J ob/ob mice, 7 days; conditions: for Cumulative food intake / Heavier (+) or lighter (−) than initial weight / Weight gain (+) or loss (−) / Increase (+) or decrease (−) of cumulative food intake: D-analog series
Method: A. Housing: 6–8-week old homozygous female obese (ob/ob) and wild type (+1+) mice (C57BL/6J, Jackson Laboratory, Bar Harbor, Maine) were maintained in a temperature-controlled room (24° C.) in the Albany Medical College Animal Resources Facility under alternating 12-h light and dark periods (lights on 0700–1900 h). The animals were housed three per cage, and allowed food and water ad libitum for six days following their arrival.
Food and water remaining after 24 h was measured to the nearest 0.1 g and 0.1 ml, respectively, and the average amount consumed per mouse was calculated (mean±SEM, n=6). The mice were weighed once daily between 0900 and 1100 h on an Acculab V-333 electronic balance (Cole-Parmer, Vernon Hills, Ill.)
C. […] Control mice received 0.2 ml PBS (ip) only.
Female C7BL/6J ob/ob mice were given a single ip injection of vehicle (PBS, pH 7.2), LEP-(116–130) or truncated peptide (1 mg/200 ul PBS) for seven consecutive days. Daily changes in body weight compared to pretreatment weights of vehicle-injected control and peptide-treated mice were analyzed.

[5] = Blood glucose in female C57BL/6J ob/ob mice (Example 11); conditions: 1 mg/day ip
Method: D. Measurement of blood glucose: Blood was drawn from the tail vein of each mouse 2 h before the onset of the dark period at the beginning of the study, and after 2, 4, and 6 days of peptide treatment. The blood was applied to a test strip, and glucose levels were measured with a Glucometer Elite (Bayer, Elkhart, Ind.) glucose monitor.

| Substance | Cumulative food intake [1] | Percent heavier (+) or lighter (−) than initial weight [1] | Weight gain (+) or loss (−) [1] | Body weight gain and food intake vs vehicle [3] | Cumulative water intake ([4]; 1 mg/day ip, 7 days) | Cumulative food intake ([4]; 1 mg/day ip, 7 days) | Heavier (+) or lighter (−) than initial weight ([4]; 1 mg/day ip, 7 days) | Weight gain (+) or loss (−) ([4]; 1 mg/day ip, 7 days) | Food intake of D-analogs ([4]; 7 days) | Increase (+) or decrease (−) of cumulative water intake ([4]; vs vehicle) | Increase (+) or decrease (−) of cumulative food intake ([4]; vs vehicle) | Serum glucose level ([5]; Day 2) | Serum glucose level ([5]; Day 4) | Serum glucose level ([5]; Day 6) | further results |
| --- | --- | --- | --- | --- | --- | --- | --- | --- | --- | --- | --- | --- | --- | --- | --- |
| D L L H L L A F S K S C S L P (DLLHLLAFSKSCSLP) [LEP(106–120)] | 34.5 ± 1.1^b gm/mouse | −12.0% | −6.1^a g | – | – | – | – | – | – | – | – | – | – | – | Reduction of food intake [1]: 14.8%; Weight loss [1]: 12.0%; Food intake vs vehicle [1]: significantly (P=0.01) less than vehicle-injected control mice; Weight gain and food intake vs vehicle [2]: significantly (P<0.01) restricted weight gain and food intake |
| A V P I Q K V Q D D T K T L I (AVPIQKVQDDTKTLI) [LEP(21–35)] | 39.1 ± 1.0 gm/mouse | +24.0% | +6.2 g | not significantly (i.e., P>0.05) different | – | – | – | – | – | – | – | – | – | – | – |
| R I N D I S H T Q S V S A K Q (RINDISHTQSVSAKQ) [LEP(41–55)] | 39.4 ± 1.5 gm/mouse | +27.6% | +5.9 g | not significantly (i.e., P>0.05) different | – | – | – | – | – | – | – | – | – | – | – |
| Ser-Cys-Ser-Leu-Pro (SCSLP; printed: Ser-Cys-Ser-Leu-Pro) [LEP-(116–120)] | – | – | – | did not approximate the activity observed with LEP(116–130) | – | – | – | – | – | – | – | – | – | – | Cumulative food intake g/mouse3 g/mouse3 ([4]; 1 mg/day ip, 7 days): 42.4 ± 1.2 g/mouse; Decrease(%) of cumulative food intake ([4]; 1 mg/day ip, 7 days, vs vehicle): 6.2%; Food intake less than vehicle-injected control mice ([4]; 7 days): 6.2% |
| V S A K Q R V T G L D F I P G (VSAKQRVTGLDFIPG; not fully specified) [LEP(51–65)] | 40.7 ± 0.6 gm/mouse | +25.0% | +6.4 g | not significantly (i.e., P>0.05) different | – | – | – | – | – | – | – | – | – | – | – |
| D I L Q Q L D V S P E C (DILQQLDVSPEC; not fully specified (N-terminus)) [LEP(156–167)] | 40.3 ± 0.6 gm/mouse | +22.6% | +5.7 g | – | – | – | – | – | – | – | – | – | – | – | Weight gain and food intake vs vehicle [2]: continued to consume food and gain weight at a rate comparable to vehicle-injected control mice |
| T K T L I K T I V T R I N D I (TKTLIKTIVTRINDI) [LEP(31–45)] | 39.5 ± 0.6 gm/mouse | +26.6% | +6.6 g | not significantly (i.e., P>0.05) different | – | – | – | – | – | – | – | – | – | – | – |
| [D-Ser][D-Cys][D-Ser][D-Leu][D-Pro][D-Gln][D-Thr] [[D]-OB3] | – | – | – | – | 67.5 ± 2.2 ml/mouse | 52.7 ± 1.0 g/mouse | +10.0% | +4.0 ± 0.36 g | slight increase in food consumption | +5.1% | +4.6% | 325.7 ± 31.5 mg/dL | 405.5 ± 35.8 mg/dL | 401.8 ± 25.0 mg/dL | – |
| E A S L Y S T E V V A L S R L (EASLYSTEVVALSRL; not fully specified (N-terminus)) [LEP(136–150)] | 38.7 ± 1.6 gm/mouse | +25.6% | +5.4 g | – | – | – | – | – | – | – | – | – | – | – | Weight gain and food intake vs vehicle [2]: continued to consume food and gain weight at a rate comparable to vehicle-injected control mice |
| Ser-Cys-Ser-Leu-Pro-Gln-[D-Thr] (SCSLPQ[dT]; not fully specified; printed as Ser-Cys-Ser-Leu-Pro-Gln-[D-Thr]) [[D-Thr-7]-OB3] | – | – | – | – | 68.3 ± 2.7 ml/mouse | 56.1 ± 0.6 g/mouse | +10.6% | +4.6 ± 0.34 g | slight increase in food consumption | +6.4% | +11.3% | 384.2 ± 18.1 mg/dL | 405.5 ± 16.0 mg/dL | 375.7 ± 17.8 mg/dL | – |
| S[dC]SLPQT [[D-Cys-2]-OB3] | – | – | – | – | 62.7 ± 1.7 ml/mouse | 47.6 ± 0.8 g/mouse | +12.8% | +4.8 ± 0.11 g | reduced food intake when compared to vehicle-injected control mice, but not to the level seen in mice receiving OB3 | −2.3% | −5.6% | 298.0 ± 27.9 mg/dL | 403.0 ± 41.1 mg/dL | 346.2 ± 31.7 mg/dL | – |
| Ser-Cys-[D-Ser]-Leu-Pro-Gln-Thr (SC[dS]LPQT) [[D-Ser-3]-OB3] | – | – | – | – | 53.2 ± 1.1 ml/mouse | 45.9 ± 0.6 g/mouse | +13.2% | +4.7 ± 0.67 g | reduced food intake when compared to vehicle-injected control mice, but not to the level seen in mice receiving OB3 | −17.1% | −8.9% | 385.0 ± 10.0 mg/dL | 337.0 ± 43.6 mg/dL | 348.2 ± 14.0 mg/dL | – |
| Q K P E S L D G V L E A S L Y (QKPESLDGVLEASLY; not fully specified (N-terminus)) [LEP(126–140)] | 34.7 ± 1.3^b gm/mouse | −10.2% | −6.0^a g | – | – | – | – | – | – | – | – | – | – | – | Reduction of food intake [1]: 14.3%; Weight loss [1]: 10.2%; Food intake vs vehicle [1]: significantly (P=0.01) less than vehicle-injected control mice; Weight gain and food intake vs vehicle [2]: significantly (P<0.01) restricted weight gain and food intake |
| SCSL[dP]QT [[D-Pro-5]-OB3] | – | – | – | – | 32.2 ± 0.8^b ml/mouse | 36.0 ± 12^b g/mouse | +2.4% | +1.2 ± 0.13^b g | equivalent to that of mice receiving OB3 | −49.8% | −28.6% | 272.0 ± 22.2^b mg/dl | 213.0 ± 28.4^a mg/dl | 202.8 ± 31.4^a mg/dl | Water consumption relative to OB3 ([4]; 7 days): significantly less than that seen in mice receiving OB3 |
